ChEMBL document CHEMBL5442219

What was measured:
Details in all cases: Compound concentration 10 µM
[1] = biological target: T1, Muscarinic acetylcholine receptor M5 (Homo sapiens) (UniProt P08912)
T1 sequence (whole entry): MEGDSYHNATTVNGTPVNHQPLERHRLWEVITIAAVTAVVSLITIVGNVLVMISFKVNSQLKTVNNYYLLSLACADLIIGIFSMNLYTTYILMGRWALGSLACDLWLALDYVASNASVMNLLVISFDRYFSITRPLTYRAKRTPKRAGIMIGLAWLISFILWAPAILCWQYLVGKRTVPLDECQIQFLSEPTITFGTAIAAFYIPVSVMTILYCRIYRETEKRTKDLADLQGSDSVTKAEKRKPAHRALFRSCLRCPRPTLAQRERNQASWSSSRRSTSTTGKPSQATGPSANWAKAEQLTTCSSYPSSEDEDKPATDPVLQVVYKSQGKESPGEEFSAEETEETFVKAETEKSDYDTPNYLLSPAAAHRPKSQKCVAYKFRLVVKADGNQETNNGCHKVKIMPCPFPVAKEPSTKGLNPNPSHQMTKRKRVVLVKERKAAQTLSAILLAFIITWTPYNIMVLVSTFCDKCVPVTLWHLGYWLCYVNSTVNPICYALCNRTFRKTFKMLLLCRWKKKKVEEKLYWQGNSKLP
Description: PDSP Primary Binding target: CHRM5 - Compounds are tested at 10 uM concentration, plate are incubated at room temperature in the dark for 90 minutes. Reaction are stopped by vacuum filtration onto 0.3% polyethyleneimine soaked filter mats using Filtermate harvester. Scintilation cocktail is then melted onto microwave-dried filters on a hot plate and the radio activity is counted in Microbia counter.

[2] = biological target: 5-hydroxytryptamine receptor 1E (Homo sapiens) (UniProt P28566)
Description: PDSP Primary Binding target: HTR1E - Compounds are tested at 10 uM concentration, plate are incubated at room temperature in the dark for 90 minutes. Reaction are stopped by vacuum filtration onto 0.3% polyethyleneimine soaked filter mats using Filtermate harvester. Scintilation cocktail is then melted onto microwave-dried filters on a hot plate and the radio activity is counted in Microbia counter.

[3] = biological target: Sodium-dependent serotonin transporter (Homo sapiens) (UniProt P31645)
Description: PDSP Primary Binding target: SLC6A4 - Compounds are tested at 10 uM concentration, plate are incubated at room temperature in the dark for 90 minutes. Reaction are stopped by vacuum filtration onto 0.3% polyethyleneimine soaked filter mats using Filtermate harvester. Scintilation cocktail is then melted onto microwave-dried filters on a hot plate and the radio activity is counted in Microbia counter.

[4] = biological target: 5-hydroxytryptamine receptor 1B (Homo sapiens) (UniProt P28222)
Description: PDSP Primary Binding target: HTR1B - Compounds are tested at 10 uM concentration, plate are incubated at room temperature in the dark for 90 minutes. Reaction are stopped by vacuum filtration onto 0.3% polyethyleneimine soaked filter mats using Filtermate harvester. Scintilation cocktail is then melted onto microwave-dried filters on a hot plate and the radio activity is counted in Microbia counter.

[5] = biological target: Histamine H1 receptor (Homo sapiens) (UniProt P35367)
Description: PDSP Primary Binding target: HRH1 - Compounds are tested at 10 uM concentration, plate are incubated at room temperature in the dark for 90 minutes. Reaction are stopped by vacuum filtration onto 0.3% polyethyleneimine soaked filter mats using Filtermate harvester. Scintilation cocktail is then melted onto microwave-dried filters on a hot plate and the radio activity is counted in Microbia counter.

[6] = biological target: T2, Alpha-1A adrenergic receptor (Homo sapiens) (UniProt P35348)
T2 sequence (whole entry): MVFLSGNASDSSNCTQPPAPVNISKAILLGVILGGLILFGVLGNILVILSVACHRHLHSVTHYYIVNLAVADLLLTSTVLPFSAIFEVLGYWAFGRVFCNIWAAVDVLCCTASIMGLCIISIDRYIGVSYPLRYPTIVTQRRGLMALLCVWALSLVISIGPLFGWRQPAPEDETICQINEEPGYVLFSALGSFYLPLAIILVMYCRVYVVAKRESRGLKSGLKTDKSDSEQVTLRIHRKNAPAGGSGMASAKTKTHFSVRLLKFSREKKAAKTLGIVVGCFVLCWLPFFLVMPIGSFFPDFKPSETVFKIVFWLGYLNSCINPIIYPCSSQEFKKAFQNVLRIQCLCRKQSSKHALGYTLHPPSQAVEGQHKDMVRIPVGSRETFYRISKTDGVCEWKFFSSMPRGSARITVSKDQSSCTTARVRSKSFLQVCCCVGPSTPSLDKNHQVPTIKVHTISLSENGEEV
Description: PDSP Primary Binding target: ADRA1A - Compounds are tested at 10 uM concentration, plate are incubated at room temperature in the dark for 90 minutes. Reaction are stopped by vacuum filtration onto 0.3% polyethyleneimine soaked filter mats using Filtermate harvester. Scintilation cocktail is then melted onto microwave-dried filters on a hot plate and the radio activity is counted in Microbia counter.

[7] = biological target: T3, D(4) dopamine receptor (Homo sapiens) (UniProt P21917)
T3 sequence (whole entry): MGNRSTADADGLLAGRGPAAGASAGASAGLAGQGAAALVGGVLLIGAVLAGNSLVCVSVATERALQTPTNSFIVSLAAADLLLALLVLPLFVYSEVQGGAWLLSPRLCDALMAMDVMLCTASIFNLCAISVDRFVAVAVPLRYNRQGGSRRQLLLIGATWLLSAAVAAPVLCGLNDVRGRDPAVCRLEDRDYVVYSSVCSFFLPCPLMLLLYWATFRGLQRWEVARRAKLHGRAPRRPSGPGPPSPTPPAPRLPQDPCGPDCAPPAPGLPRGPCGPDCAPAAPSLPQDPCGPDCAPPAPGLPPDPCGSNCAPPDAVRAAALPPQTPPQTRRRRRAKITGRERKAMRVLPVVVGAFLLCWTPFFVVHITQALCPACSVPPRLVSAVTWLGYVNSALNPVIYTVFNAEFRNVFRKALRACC
Description: PDSP Primary Binding target: DRD4 - Compounds are tested at 10 uM concentration, plate are incubated at room temperature in the dark for 90 minutes. Reaction are stopped by vacuum filtration onto 0.3% polyethyleneimine soaked filter mats using Filtermate harvester. Scintilation cocktail is then melted onto microwave-dried filters on a hot plate and the radio activity is counted in Microbia counter.

[8] = biological target: T4, Alpha-2A adrenergic receptor (Homo sapiens) (UniProt P08913)
T4 sequence (whole entry): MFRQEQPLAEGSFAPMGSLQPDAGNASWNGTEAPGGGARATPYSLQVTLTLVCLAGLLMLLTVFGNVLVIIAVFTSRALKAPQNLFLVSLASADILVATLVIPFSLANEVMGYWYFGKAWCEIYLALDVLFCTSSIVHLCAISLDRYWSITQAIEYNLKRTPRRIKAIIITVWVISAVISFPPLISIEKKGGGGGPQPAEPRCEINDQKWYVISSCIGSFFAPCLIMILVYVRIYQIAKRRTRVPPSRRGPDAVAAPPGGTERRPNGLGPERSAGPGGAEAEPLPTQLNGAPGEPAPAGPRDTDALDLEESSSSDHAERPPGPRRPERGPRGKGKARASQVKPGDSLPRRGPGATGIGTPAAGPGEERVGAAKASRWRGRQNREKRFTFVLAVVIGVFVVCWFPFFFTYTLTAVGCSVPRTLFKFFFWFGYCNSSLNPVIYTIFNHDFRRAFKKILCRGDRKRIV
Description: PDSP Primary Binding target: ADRA2A - Compounds are tested at 10 uM concentration, plate are incubated at room temperature in the dark for 90 minutes. Reaction are stopped by vacuum filtration onto 0.3% polyethyleneimine soaked filter mats using Filtermate harvester. Scintilation cocktail is then melted onto microwave-dried filters on a hot plate and the radio activity is counted in Microbia counter.

[9] = biological target: Translocator protein (Homo sapiens) (UniProt P30536)
Description: PDSP Primary Binding target: TSPO - Compounds are tested at 10 uM concentration, plate are incubated at room temperature in the dark for 90 minutes. Reaction are stopped by vacuum filtration onto 0.3% polyethyleneimine soaked filter mats using Filtermate harvester. Scintilation cocktail is then melted onto microwave-dried filters on a hot plate and the radio activity is counted in Microbia counter.

[10] = biological target: D(2) dopamine receptor (Homo sapiens) (UniProt P14416)
Description: PDSP Primary Binding target: DRD2 - Compounds are tested at 10 uM concentration, plate are incubated at room temperature in the dark for 90 minutes. Reaction are stopped by vacuum filtration onto 0.3% polyethyleneimine soaked filter mats using Filtermate harvester. Scintilation cocktail is then melted onto microwave-dried filters on a hot plate and the radio activity is counted in Microbia counter.

[11] = biological target: Histamine H3 receptor (Homo sapiens) (UniProt Q9Y5N1)
Description: PDSP Primary Binding target: HRH3 - Compounds are tested at 10 uM concentration, plate are incubated at room temperature in the dark for 90 minutes. Reaction are stopped by vacuum filtration onto 0.3% polyethyleneimine soaked filter mats using Filtermate harvester. Scintilation cocktail is then melted onto microwave-dried filters on a hot plate and the radio activity is counted in Microbia counter.

[12] = biological target: T5, Alpha-1D adrenergic receptor (Homo sapiens) (UniProt P25100)
T5 sequence (whole entry): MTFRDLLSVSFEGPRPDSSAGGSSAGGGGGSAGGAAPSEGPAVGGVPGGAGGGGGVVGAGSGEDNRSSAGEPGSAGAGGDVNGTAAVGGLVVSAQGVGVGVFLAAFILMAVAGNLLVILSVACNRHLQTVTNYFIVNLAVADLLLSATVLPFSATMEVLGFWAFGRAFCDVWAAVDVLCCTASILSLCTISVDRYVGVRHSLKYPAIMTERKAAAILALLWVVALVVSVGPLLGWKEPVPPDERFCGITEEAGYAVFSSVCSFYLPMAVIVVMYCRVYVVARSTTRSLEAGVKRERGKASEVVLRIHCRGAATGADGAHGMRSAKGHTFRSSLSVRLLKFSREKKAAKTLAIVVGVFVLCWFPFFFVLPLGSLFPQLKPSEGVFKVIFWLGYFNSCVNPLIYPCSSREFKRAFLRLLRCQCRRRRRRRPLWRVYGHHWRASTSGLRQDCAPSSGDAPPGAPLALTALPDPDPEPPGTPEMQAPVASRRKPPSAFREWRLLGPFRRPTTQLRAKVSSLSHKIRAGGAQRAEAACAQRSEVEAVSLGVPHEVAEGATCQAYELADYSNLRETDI
Description: PDSP Primary Binding target: ADRA1D - Compounds are tested at 10 uM concentration, plate are incubated at room temperature in the dark for 90 minutes. Reaction are stopped by vacuum filtration onto 0.3% polyethyleneimine soaked filter mats using Filtermate harvester. Scintilation cocktail is then melted onto microwave-dried filters on a hot plate and the radio activity is counted in Microbia counter.

[13] = biological target: Muscarinic acetylcholine receptor M3 (Homo sapiens) (UniProt P20309)
Chain of Muscarinic acetylcholine receptor M3 (Homo sapiens) (P20309 whole entry, looked up): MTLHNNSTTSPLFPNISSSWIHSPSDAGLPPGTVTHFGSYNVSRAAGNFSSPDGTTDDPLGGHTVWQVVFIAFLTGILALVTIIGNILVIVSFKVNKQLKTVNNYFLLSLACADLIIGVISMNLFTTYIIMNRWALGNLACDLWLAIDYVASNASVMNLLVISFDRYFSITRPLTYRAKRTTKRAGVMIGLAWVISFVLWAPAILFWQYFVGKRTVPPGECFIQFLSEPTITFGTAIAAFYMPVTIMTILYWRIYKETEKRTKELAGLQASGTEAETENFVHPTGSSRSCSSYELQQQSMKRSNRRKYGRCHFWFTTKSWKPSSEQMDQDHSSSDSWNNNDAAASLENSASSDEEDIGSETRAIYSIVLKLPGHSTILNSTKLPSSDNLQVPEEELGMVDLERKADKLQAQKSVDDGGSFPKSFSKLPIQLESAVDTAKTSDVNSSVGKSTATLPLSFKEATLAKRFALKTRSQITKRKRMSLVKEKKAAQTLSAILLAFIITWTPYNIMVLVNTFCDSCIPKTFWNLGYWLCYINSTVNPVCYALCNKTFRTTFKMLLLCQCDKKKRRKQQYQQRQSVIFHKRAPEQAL
Description: PDSP Primary Binding target: CHRM3 - Compounds are tested at 10 uM concentration, plate are incubated at room temperature in the dark for 90 minutes. Reaction are stopped by vacuum filtration onto 0.3% polyethyleneimine soaked filter mats using Filtermate harvester. Scintilation cocktail is then melted onto microwave-dried filters on a hot plate and the radio activity is counted in Microbia counter.

Chain of 5-hydroxytryptamine receptor 1B (Homo sapiens) (P28222 whole entry): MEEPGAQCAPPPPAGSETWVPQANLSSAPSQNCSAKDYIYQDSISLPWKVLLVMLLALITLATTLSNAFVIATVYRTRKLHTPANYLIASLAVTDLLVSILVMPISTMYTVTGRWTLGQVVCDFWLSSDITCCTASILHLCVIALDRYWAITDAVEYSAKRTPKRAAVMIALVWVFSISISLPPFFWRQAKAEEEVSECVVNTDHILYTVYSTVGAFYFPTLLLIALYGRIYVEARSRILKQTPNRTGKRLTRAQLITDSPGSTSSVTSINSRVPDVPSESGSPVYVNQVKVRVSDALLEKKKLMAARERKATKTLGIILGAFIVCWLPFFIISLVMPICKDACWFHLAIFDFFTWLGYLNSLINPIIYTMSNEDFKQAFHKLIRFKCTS
Chain of Histamine H1 receptor (Homo sapiens) (P35367 whole entry): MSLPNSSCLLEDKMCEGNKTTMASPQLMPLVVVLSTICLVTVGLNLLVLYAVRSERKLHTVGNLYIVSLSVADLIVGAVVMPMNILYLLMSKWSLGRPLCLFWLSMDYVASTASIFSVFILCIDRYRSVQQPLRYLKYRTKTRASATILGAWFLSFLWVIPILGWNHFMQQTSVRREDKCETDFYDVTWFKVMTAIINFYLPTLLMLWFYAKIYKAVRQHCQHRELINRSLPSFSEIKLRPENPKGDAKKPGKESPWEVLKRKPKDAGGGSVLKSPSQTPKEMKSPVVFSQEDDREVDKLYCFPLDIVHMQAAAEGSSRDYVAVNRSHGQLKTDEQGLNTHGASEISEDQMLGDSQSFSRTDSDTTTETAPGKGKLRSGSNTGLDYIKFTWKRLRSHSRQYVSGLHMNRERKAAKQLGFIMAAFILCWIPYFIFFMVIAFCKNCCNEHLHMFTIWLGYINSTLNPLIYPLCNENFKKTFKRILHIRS
Chain of Histamine H3 receptor (Homo sapiens) (Q9Y5N1 whole entry): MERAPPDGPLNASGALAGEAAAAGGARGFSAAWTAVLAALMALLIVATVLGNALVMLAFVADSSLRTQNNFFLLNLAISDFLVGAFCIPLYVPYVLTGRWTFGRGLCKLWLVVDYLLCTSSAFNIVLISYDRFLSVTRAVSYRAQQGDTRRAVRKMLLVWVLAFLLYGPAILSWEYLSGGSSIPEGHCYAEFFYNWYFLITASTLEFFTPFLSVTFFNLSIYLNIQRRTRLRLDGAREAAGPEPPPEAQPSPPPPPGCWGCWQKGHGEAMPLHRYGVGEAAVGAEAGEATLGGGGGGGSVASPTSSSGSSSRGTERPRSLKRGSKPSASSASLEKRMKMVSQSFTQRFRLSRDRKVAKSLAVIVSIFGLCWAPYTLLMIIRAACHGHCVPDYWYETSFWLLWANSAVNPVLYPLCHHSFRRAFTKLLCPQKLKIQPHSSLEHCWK
Chain of D(2) dopamine receptor (Homo sapiens) (P14416 whole entry): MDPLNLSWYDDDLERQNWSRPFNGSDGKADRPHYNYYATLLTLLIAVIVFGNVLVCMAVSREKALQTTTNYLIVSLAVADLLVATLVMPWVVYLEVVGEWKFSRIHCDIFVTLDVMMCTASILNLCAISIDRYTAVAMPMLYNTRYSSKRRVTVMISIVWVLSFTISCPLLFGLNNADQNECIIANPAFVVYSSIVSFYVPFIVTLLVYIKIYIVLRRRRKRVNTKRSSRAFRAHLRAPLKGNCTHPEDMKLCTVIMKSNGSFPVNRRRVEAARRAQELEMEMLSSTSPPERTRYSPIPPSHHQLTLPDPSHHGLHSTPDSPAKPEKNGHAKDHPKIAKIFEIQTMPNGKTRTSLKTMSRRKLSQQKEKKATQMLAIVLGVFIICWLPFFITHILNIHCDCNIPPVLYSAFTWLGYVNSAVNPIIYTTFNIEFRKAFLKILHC
Chain of 5-hydroxytryptamine receptor 1E (Homo sapiens) (P28566 whole entry): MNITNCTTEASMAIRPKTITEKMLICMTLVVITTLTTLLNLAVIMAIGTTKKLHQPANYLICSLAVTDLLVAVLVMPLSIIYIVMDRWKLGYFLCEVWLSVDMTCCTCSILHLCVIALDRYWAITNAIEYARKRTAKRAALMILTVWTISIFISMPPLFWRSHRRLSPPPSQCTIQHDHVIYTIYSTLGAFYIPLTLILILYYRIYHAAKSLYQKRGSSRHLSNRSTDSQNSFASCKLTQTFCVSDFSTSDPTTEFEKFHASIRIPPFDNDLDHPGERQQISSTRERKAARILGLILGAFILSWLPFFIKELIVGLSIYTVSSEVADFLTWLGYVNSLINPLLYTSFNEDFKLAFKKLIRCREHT
Chain of Sodium-dependent serotonin transporter (Homo sapiens) (P31645 whole entry, looked up): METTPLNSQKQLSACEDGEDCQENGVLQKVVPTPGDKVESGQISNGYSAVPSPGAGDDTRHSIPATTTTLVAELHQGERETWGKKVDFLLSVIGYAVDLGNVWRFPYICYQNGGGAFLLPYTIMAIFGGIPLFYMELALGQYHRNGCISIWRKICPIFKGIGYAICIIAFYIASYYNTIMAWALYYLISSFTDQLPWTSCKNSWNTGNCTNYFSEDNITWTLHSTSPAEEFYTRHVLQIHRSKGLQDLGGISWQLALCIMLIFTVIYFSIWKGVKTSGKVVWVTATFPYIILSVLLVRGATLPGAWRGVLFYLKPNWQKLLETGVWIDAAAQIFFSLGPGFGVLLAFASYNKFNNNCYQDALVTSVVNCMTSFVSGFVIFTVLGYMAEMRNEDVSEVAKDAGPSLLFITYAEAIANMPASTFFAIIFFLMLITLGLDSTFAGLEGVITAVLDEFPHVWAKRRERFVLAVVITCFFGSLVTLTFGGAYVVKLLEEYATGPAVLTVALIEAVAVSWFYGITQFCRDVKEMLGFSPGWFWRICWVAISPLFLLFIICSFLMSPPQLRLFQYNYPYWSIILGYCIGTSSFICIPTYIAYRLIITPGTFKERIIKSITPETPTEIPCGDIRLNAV
Chain of Translocator protein (Homo sapiens) (P30536 whole entry): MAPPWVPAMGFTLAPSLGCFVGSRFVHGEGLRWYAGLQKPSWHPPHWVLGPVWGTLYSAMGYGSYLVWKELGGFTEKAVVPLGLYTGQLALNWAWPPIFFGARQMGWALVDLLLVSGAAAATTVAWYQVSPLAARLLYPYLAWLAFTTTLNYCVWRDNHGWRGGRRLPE

SMILES	inhibition [1] [%]	inhibition [2] [%]	inhibition [3] [%]	inhibition [4] [%]	inhibition [5] [%]	inhibition [6] [%]	inhibition [7] [%]	inhibition [8] [%]	inhibition [9] [%]	inhibition [10] [%]	inhibition [11] [%]	inhibition [12] [%]	inhibition [13] [%]
COc1ccc(S(=O)(=O)c2cc(OC)ccc2S(=O)(=O)c2ccc([C@H](C)NS(C)(=O)=O)cc2)cc1	-5.9	-6.16	-7.38	-1.73	-5.89	22.6	58.7	-4.09	25.6	1.18			
CCCCN(CCCC)C(=O)CN1C[C@@H](c2ccc3c(c2)OCO3)[C@H](C(=O)O)[C@H]1c1ccc(OC)cc1	30.2	-0.09	-9.18	-0.63	3.82	11.4	60.5	0.09	84.7	21.1	-6.84		
COc1ccc(S(=O)(=O)N2c3ccc(Cl)cc3[C@](O)(c3ccccc3Cl)[C@@H]2C(=O)N2CCC[C@H]2C(N)=O)cc1OC	7.17		46.5		5.97	-4.04	-3.97	12.7		11.8	7.89	10.8	
Nc1nc(NCCc2ccc(O)cc2)nc2nc(-c3ccco3)nn12			-5.81	27		-6.79	4.31	19	22.4	40		8.13	-6.51
N#Cc1cccc(C(=O)Nc2cc(-c3ccccc3)nn2-c2ccccc2)c1	2.45	3.88	6.36	23.3	-6.18	4.85	4.16	-0.39		-0.08	7.12		
CSc1ccc(C(=O)N[C@@H]2CCCC[C@@H]2NC(=O)CNC(=O)c2cc(C(F)(F)F)ccc2NC(=O)NC(C)C)cc1		-4.02	13.7		70.6	7.53	3.27	-2.26	46.9	45.7	4.61		
C=CCN1C[C@H](C)N([C@H](c2ccc(C(=O)N(CC)CC)cc2)c2cccc(O)c2)C[C@H]1C		19.5	13.7	27.1	8.35	16.8		17.8	20.7	-2.85	0.95		-6.19
CC(C)(N)C(=O)N[C@H](COCc1ccccc1)C(=O)N1CCC2(CC1)CN(S(C)(=O)=O)c1ccccc12	5.22	14.1	23.6		24.6	3.39		10.4	9.25	22.7	-0.42	9.82	
